The source of these data is PubChem BioAssay (NCI).

Structures are written as SMILES.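 The compound was tested at five concentrations on cells cultured in 96-well plates, with a 48-hour exposure period. Abbreviation: GI50, concentration required for 50% inhibition of growth. TGI: concentration producing complete growth inhibition.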

Among the test systems are MDA-N; XF 498 CNS; DMS 273 small cell lung; SNB-78 CNS; KM20L2 colon; DMS 114 small cell lung; RXF-631 renal; M19-MEL melanoma; HOP-18 NSCLC; P388 leukemia; SN12K1 renal; P388/ADR leukemia.
Common to all, as to assay: NCI tumour cell line growth inhibition, 48 h

For the compound `c1cncc(CNCc2cccnc2)c1`, the TGI in the assay on MDA-N is over 100 µM.

On to `CC(C)(C)C(=CS(=O)/N=C/c1ccccc1)C(C)(C)C` (stereo not drawn), for which the TGI in the assay on XF 498 CNS was 89.7 µM; with DMS 273 small cell lung, 92 µM; with SNB-78 CNS it was over 100 µM; in the assay on KM20L2 colon it was over 100 µM; in the assay with DMS 114 small cell lung, 82.1 µM; with RXF-631 renal it was over 100 µM. This compound displayed a TGI in the assay on M19-MEL melanoma of over 100 µM.

For the compound `CCCC(=O)N[C@H]1C2C3CC4C5CC(C42)C1(C)C53` (stereo partly drawn), the TGI in the assay on DMS 273 small cell lung, in the assay with SNB-78 CNS, in the assay with KM20L2 colon, in the assay on HOP-18 NSCLC and in the assay on M19-MEL melanoma was over 100 µM in each case.

In the assay with MDA-N, `CC1=Cc2ccc(C)cc2C(=O)C1=O` had a TGI of 11.9 µM.

For the compound `CN(C)CCSS(=O)(=O)O`, the TGI in the assay on MDA-N is over 100 µM.

For `CC(C)CCCC(C)[C@H]1CCC2[C@@H]3CCC4Nc5c(cnn5-c5ccccc5)C[C@]4(C)C3CC[C@@]21C` (stereo partly drawn), the TGI was over 100 µM in the assay on XF 498 CNS; 8.08 µM with DMS 273 small cell lung; over 100 µM in the assay with SNB-78 CNS; over 100 µM with KM20L2 colon; over 100 µM with DMS 114 small cell lung; over 100 µM with HOP-18 NSCLC. The TGI in the assay with RXF-631 renal was 38.4 µM; with M19-MEL melanoma it was over 100 µM.

With `COc1cc(C)c(C2NC(=O)c3ccccc3N2)cc1C` (stereo not drawn), the TGI in the assay with MDA-N amounted to 0.128 µM.

`CC(C)=CCC(OC(=O)C=C(C)C)C1=CC(=O)c2c(O)ccc(O)c2C1=O` (stereo not drawn): the TGI with XF 498 CNS turned out to be 1.74 µM; in the assay on P388 leukemia it was 2.77 µM; in the assay with DMS 273 small cell lung, 5.53 µM; with SN12K1 renal, 2.93 µM; in the assay with SNB-78 CNS it was 5.88 µM; with KM20L2 colon it was 5.64 µM. Further, the TGI in the assay on P388/ADR leukemia turned out to be 19.5 µM; with DMS 114 small cell lung it was 3.03 µM; in the assay on HOP-18 NSCLC it was 7.58 µM; with M19-MEL melanoma it was 1.87 µM.

As to `C[Si](C)(C)/C=C\CCO`, the TGI in the assay with XF 498 CNS, with DMS 273 small cell lung, in the assay on SNB-78 CNS, in the assay on KM20L2 colon, in the assay with DMS 114 small cell lung and with HOP-18 NSCLC was over 100 µM throughout. Also, the TGI with RXF-631 renal and in the assay with M19-MEL melanoma was over 100 µM throughout.

Regarding `CC(=O)O[C@]1(C)OC(=O)[C@@H](CC(C)C)N1[N+](=O)[O-]`, the TGI with DMS 273 small cell lung, in the assay with SNB-78 CNS, in the assay with KM20L2 colon, in the assay with DMS 114 small cell lung, in the assay on HOP-18 NSCLC and in the assay on M19-MEL melanoma was over 100 µM throughout.

For `CC(=O)[O-].[Mn+3].[O-]c1ccccc1C=NCCNCCN=Cc1ccccc1[O-]`, the GI50 in the assay with DMS 273 small cell lung, in the assay with SNB-78 CNS, in the assay with HOP-18 NSCLC and in the assay with M19-MEL melanoma was over 100 µM throughout. Also, the TGI in the assay on DMS 273 small cell lung, with SNB-78 CNS, in the assay on HOP-18 NSCLC and with M19-MEL melanoma was over 100 µM each time.

With `CC1=Nc2ccccc2/C1=C\c1c(C)[nH]c2ccccc12`, in the assay on MDA-N, the TGI amounted to 37.4 µM.

`O=C1CC(c2[nH]nc3ccccc23)C(=O)N1c1ccccc1` (stereo not drawn): the TGI in the assay with XF 498 CNS, in the assay on DMS 273 small cell lung, in the assay with SNB-78 CNS, with KM20L2 colon, in the assay on MDA-N and with DMS 114 small cell lung was over 100 µM each time. Also, the TGI with HOP-18 NSCLC, with RXF-631 renal and with M19-MEL melanoma was over 100 µM in each case.

The compound `COc1cc2c(cc1O)CC1c3c(cc(O)c(OC)c3-2)CCN1C` (stereo not drawn) registered a TGI in the assay with MDA-N of over 100 µM.

Consider `O=c1ncccn1C1OC(CO)C(O)C1O` (stereo not drawn), for which the TGI in the assay on DMS 273 small cell lung, with SNB-78 CNS, in the assay with KM20L2 colon, in the assay with DMS 114 small cell lung, in the assay on HOP-18 NSCLC and in the assay on M19-MEL melanoma was over 100 µM throughout.

On to `CN1CCc2c1nc(-c1ccc(Cl)cc1)c1c2N(C)CC1`, for which the TGI with XF 498 CNS is 32.6 µM; in the assay with DMS 273 small cell lung it was 32 µM; in the assay with SNB-78 CNS, over 100 µM; in the assay with KM20L2 colon, 72.3 µM; in the assay with DMS 114 small cell lung, 34.3 µM; in the assay on M19-MEL melanoma it was over 100 µM.

As for `CC(=O)OCC(=O)[C@@]12OC(C)(C)O[C@@H]1C[C@H]1[C@@H]3CC(C=O)=C4C=C(OCCCl)CC[C@]4(C)[C@@]3(F)[C@@H](O)C[C@@]12C`, the TGI with XF 498 CNS was 35.8 µM; in the assay with DMS 273 small cell lung, over 100 µM; in the assay on SNB-78 CNS, 68.8 µM; in the assay on KM20L2 colon, 38.2 µM; in the assay with DMS 114 small cell lung, over 100 µM; in the assay with HOP-18 NSCLC it was 87.6 µM. In the assay with M19-MEL melanoma, the TGI was over 100 µM.

Turning to `NNC(=O)C(=O)N/N=C1\CCC(=O)CC1C(=O)CCC(=O)Nc1ccc(Cl)cc1` (stereo not drawn), the TGI in the assay on DMS 273 small cell lung, in the assay with SNB-78 CNS, in the assay with KM20L2 colon, with HOP-18 NSCLC and with M19-MEL melanoma was over 100 µM throughout.

`COC(=O)C1C(O)C(C)C(O)C(C)C=C(C)C2=C3C(=C(C)C(=O)c4c(O)c(c(C)c(OC(C)=O)c43)NC(=O)C(C)=C/C=C\C(C)C(O)C(C)C1O)OCO2` (stereo not drawn) came in with a TGI in the assay with MDA-N of 31.8 µM.

Take `O=C1CCC(N2C(=O)c3ccccc3C2=O)C(=O)N1` (stereo not drawn): the TGI with MDA-N is over 100 µM.

`N.N.N.N.N.O=[N+]([O-])[O-].[Co+3].[O-][Cl+3]([O-])([O-])[O-]`: the GI50 in the assay with DMS 273 small cell lung, in the assay with SNB-78 CNS and with KM20L2 colon was over 100 µM each time. The TGI in the assay on DMS 273 small cell lung, in the assay on SNB-78 CNS and in the assay on KM20L2 colon was over 100 µM each time.

As to `C1CC2CN(CCCN3CCOCC3)C(C1)O2` (stereo not drawn), the TGI in the assay on MDA-N was over 100 µM.

For the compound `C[C@]12CC[C@H](O)CC1=CC[C@@H]1C2CC[C@]2(C)Nc3c(cnn3-c3ccccc3)CC12` (stereo partly drawn), the TGI came to 3.66 µM in the assay on DMS 273 small cell lung; 67.7 µM with SNB-78 CNS; 5.8 µM in the assay with KM20L2 colon; 15.1 µM in the assay on DMS 114 small cell lung; 3.82 µM with RXF-631 renal; 27.5 µM with M19-MEL melanoma.

With `N/N=C1\C(=O)N(c2ccc(Cl)cc2Cl)C(=O)C(=O)C1c1nc2ccccc2o1` (stereo not drawn), the TGI in the assay on DMS 273 small cell lung, in the assay on SNB-78 CNS, in the assay with KM20L2 colon, in the assay with DMS 114 small cell lung, in the assay with HOP-18 NSCLC and in the assay on RXF-631 renal was over 100 µM in each case. In addition, the TGI in the assay on M19-MEL melanoma is over 100 µM.
